Data reported in patent publication US20030106085A1, “Disruption of the prostaglandin E synthase 2 gene” (Pfizer Inc., priority 2001, published 2003).

Experiments:
[1] = test system: PGES2 KO and wild type mice; assay: Acetic acid-induced writhing (acute inflammation/pain model); format: in vivo; settings: 10 mg/kg orally, one hour before 0.7% acetic acid i.p., vs vehicle
Procedure: PGES2 KO mice were profiled in two experimental models of inflammation, collagen-induced arthritis (chronic inflammation model) and acetic acid-induced writhing (acute inflammation/pain model). All experiments were performed with age/sex-matched animals propagated on a DBA1/lacJ genetic background. This genetic background is optimal for collagen-induced arthritis (CIA). The phenotype in CIA was further profiled by characterizing the immune responses of PGES2 KO and wild type animals by assessing antibody production and delayed-type hypersensitivity reactions. In summary, results of the CIA and acetic acid-induced writhing models indicate a role for PGES2 in PGE2-mediated chronic inflammation, acute inflammation, and acute inflammatory pain detection as opposed to neuropathic pain detection. Mice were randomized and dosed orally with either vehicle (0.5% (w/w) methylcellulose, Sigma Chemical, #M0512) or 10 mg/kg piroxicam (Sigma Chemical, #P5654). One hour later, 16 μl/g body weight of 0.7% acetic acid was administered intraperitoneally. The mice were placed in a 5-compartment box and the number of stretches was counted for 20 minutes following acetic acid injection.

[2] = test system: PGES2 KO clone #22F ES cell-derived macrophages; assay: Rescue of wild type phenotype (cell density) in PGES2 KO ES cell-derived macrophages by PGE2 added to the media; format: cell-based, murine
Procedure: DBA-252 WT (+/+) and PGES KO (−/−) ES cell clones #22D, #22F and #70V were used to develop ES cell in vitro differentiated (IVD) macrophages. WT and KO PGES2 ES cell clones were maintained without PEF feeders in SCML. Two days prior to embryoid body (EB) formation, all ES cell lines were switched to l-SCML medium that contained a base medium of Iscove's MDM (ILTI, #31980-030) supplemented with 15% ES cell qualified fetal calf serum, 0.2 mM L-glutamine, 0.1 mM MEM non-essential amino acids, 1000 u/ml recombinant murine leukemia inhibitory factor, 50 μg/ml Gentamycin and 0.1 mM 2-Mercaptoethanol (Sigma #M-7522).
Embryoid body stage: The WT and KO ES cell clones were dissociated and grown in suspension culture in bacteriology 100 mm dishes in MacEB medium that contained the base medium Iscove's MDM supplemented with 15% ES cell qualified fetal calf serum, 2 mM L-glutamine, 300 μg transferrin (ILTI, #13008-016), 50 μg/ml L-ascorbic acid (Sigma Chemical, #A-4403), 5% PFHM-II (ILTI, #12040-093), 4×10^−4 M monothioglycerol (MTG), and 50 μg/ml Gentamycin. ES cells were grown in suspension for 6 days to form the EB cell aggregates.
Precursor macrophage stage: The EBs were dissociated on day 6 and plated in tissue culture dishes in Mac I medium that contained the base medium Iscove's MDM supplemented with 10% FBS (ILTI, #10439-024), 5% PFHM-II (ILTI, #12040-093), 2 mM L-glutamine, 3 ng/ml M-CSF (Sigma #M-9170), 1 ng/ml IL-3 (PeproTech, Inc., Rocky Hill, N.J., #213-13) and 50 μg/ml Gentamycin. When this cell population became confluent, the macrophage precursors developed as non-adherent clusters and could be harvested every other day from day 14 through day 30.
ES cell-derived macrophages: Non-adherent clusters of macrophage precursors were harvested from the media by centrifugation. Cell pellets were resuspended in Mac II media that contained the base medium Iscove's MDM supplemented with 10% FBS, 5% PFHM-II, 2 mM L-glutamine, 3 ng/ml M-CSF, and 50 μg/ml Gentamycin. […]

Row | Structure (SMILES) | pain response (number of stretches counted for 20 minutes following acetic acid injection) ([1]; PGES2 KO mice) | pain response (number of stretches counted for 20 minutes following acetic acid injection) ([1]; wild type mice) | macrophage density ([2]; PGES2 KO clone 22F macrophages cultured in 10.0 μM PGE2, added at all stages of differentiation) | macrophage density compared to wild type ([2]; PGES2 KO clone #22F macrophages cultured in 0.1 μM PGE2, added at all stages of differentiation) | macrophage density compared to wild type ([2]; PGES2 KO clone #22F macrophages cultured in 1.0 μM PGE2, added at all stages of differentiation)
1 | CN1C(C(=O)Nc2ccccn2)=C(O)c2ccccc2S1(=O)=O [piroxicam] | had no effect | reduced the response |  |  | 
2 | CCCCC[C@H](O)/C=C/[C@H]1[C@H](O)CC(=O)[C@@H]1C/C=C\CCCC(=O)O [PGE2, Prostaglandin E2] |  |  | approximately 75 % of wild type | equivalent in density to wild type | equivalent in density to wild type
